Reference: ChEMBL document CHEMBL1817642, “Stereoselective synthesis and antimicrobial activity of steroidal C-20 tertiary alcohols with thiazole/pyridine side chain” (2011)
In brackets after ≈: the same amount, converted by molar mass.

What was measured:
Assay type in all cases: functional
Staphylococcus aureus = assay: Antibacterial activity against Staphylococcus aureus NCIM 2122 after 24 hrs by NCCLS method; conditions: NCIM 2122, 24 h
Candida albicans = assay: Antifungal activity against Candida albicans isolate NCL1 after 48 hrs by broth dilution method; conditions: isolate NCL1, 48 h
Fusarium oxysporum = assay: Antifungal activity against Fusarium oxysporum isolate NCL5 after 48 hrs by broth dilution method; conditions: isolate NCL5, 48 h
Escherichia coli = assay: Antibacterial activity against Escherichia coli NCIM 2574 after 24 hrs by NCCLS method; conditions: NCIM 2574, 24 h
Cryptococcus neoformans = assay: Antifungal activity against Cryptococcus neoformans isolate NCL2 after 72 hrs by broth dilution method; conditions: isolate NCL2, 72 h
Benjaminiella poitrasii = assay: Antifungal activity against Benjaminiella poitrasii isolate NCL3 after 24 hrs by M38-P broth dilution method; conditions: isolate NCL3, 24 h
Yarrowia lipolytica = assay: Antifungal activity against Yarrowia lipolytica isolate NCL4 after 24 hrs by broth dilution method; conditions: isolate NCL4, 24 h

SMILES	MIC90 (Staphylococcus aureus) [µg/mL]	MIC90 (Candida albicans) [µg/mL]	MIC90 (Fusarium oxysporum) [µg/mL]	MIC90 (Escherichia coli) [µg/mL]	MIC90 (Cryptococcus neoformans) [µg/mL]	MIC90 (Benjaminiella poitrasii) [µg/mL]	MIC90 (Yarrowia lipolytica) [µg/mL]
CC(=O)O[C@H]1CC[C@@]2(C)C(=CC[C@H]3[C@@H]4CC[C@H]([C@@](C)(O)c5ccccn5)[C@@]4(C)CC[C@@H]32)C1	32 (≈ 73.1 µM)	> 64	64 (≈ 146 µM)	8 (≈ 18.3 µM)	> 64	32 (≈ 73.1 µM)	16 (≈ 36.6 µM)
CC(C)(C)[Si](C)(C)O[C@H]1CC[C@@]2(C)[C@@H](CC[C@@H]3[C@@H]2CC[C@@]2(C)[C@H]3CC[C@@H]2[C@@](C)(O)c2nccs2)C1	16 (≈ 30.9 µM)	> 64	64 (≈ 124 µM)	16 (≈ 30.9 µM)	> 64	32 (≈ 61.8 µM)	64 (≈ 124 µM)
CC(=O)O[C@H]1CC[C@@]2(C)[C@@H](CC[C@@H]3[C@@H]2CC[C@@]2(C)[C@H]3CC[C@@H]2[C@@](C)(O)c2nccs2)C1	16 (≈ 35.9 µM)	8 (≈ 18 µM)	16 (≈ 35.9 µM)	16 (≈ 35.9 µM)	64 (≈ 144 µM)	16 (≈ 35.9 µM)	> 64
CC(=O)O[C@H]1CC[C@@]2(C)C(=CC[C@H]3[C@@H]4C[C@@H](c5ccccn5)[C@H](C(C)=O)[C@@]4(C)CC[C@@H]32)C1	16 (≈ 36.7 µM)	> 64	32 (≈ 73.5 µM)	16 (≈ 36.7 µM)	32 (≈ 73.5 µM)	64 (≈ 147 µM)	> 64
CC[C@H]1OC(=O)[C@H](C)[C@@H](O[C@H]2C[C@@](C)(OC)[C@@H](O)[C@H](C)O2)[C@H](C)[C@@H](O[C@@H]2O[C@H](C)C[C@H](N(C)C)[C@H]2O)[C@](C)(O)C[C@@H](C)C(=O)[C@H](C)[C@@H](O)[C@]1(C)O [ERYTHROMYCIN]	32 (≈ 43.6 µM)	–	–	> 64	–	–	–
CC(=O)[C@H]1[C@H](c2ccccn2)C[C@H]2[C@@H]3CC=C4C[C@@H](OS(C)(C)C(C)(C)C)CC[C@]4(C)[C@H]3CC[C@@]21C	16 (≈ 31.3 µM)	32 (≈ 62.5 µM)	64 (≈ 125 µM)	16 (≈ 31.3 µM)	> 64	64 (≈ 125 µM)	8 (≈ 15.6 µM)
CN(C)[C@@H]1C(O)=C(C(N)=O)C(=O)[C@@]2(O)C(O)=C3C(=O)c4c(O)cccc4[C@@](C)(O)[C@H]3C[C@@H]12 [TETRACYCLINE]	16 (≈ 36 µM)	–	–	8 (≈ 18 µM)	–	–	–
C[C@]12CC[C@H]3[C@@H](CC=C4C[C@@H](O)CC[C@@]43C)[C@@H]1CC[C@@H]2[C@@](C)(O)c1ccccn1	8 (≈ 20.2 µM)	> 64	16 (≈ 40.4 µM)	16 (≈ 40.4 µM)	64 (≈ 162 µM)	32 (≈ 80.9 µM)	32 (≈ 80.9 µM)
CC(=O)O[C@H]1CC[C@@]2(C)C(=CC[C@H]3[C@@H]4CC[C@H]([C@@](C)(O)c5nccs5)[C@@]4(C)CC[C@@H]32)C1	32 (≈ 72.1 µM)	> 64	64 (≈ 144 µM)	8 (≈ 18 µM)	32 (≈ 72.1 µM)	32 (≈ 72.1 µM)	> 64
CC(=O)[C@H]1[C@H](c2ccccn2)C[C@H]2[C@@H]3CC=C4C[C@@H](O)CC[C@]4(C)[C@H]3CC[C@@]21C	8 (≈ 20.3 µM)	32 (≈ 81.3 µM)	64 (≈ 163 µM)	16 (≈ 40.7 µM)	> 64	32 (≈ 81.3 µM)	16 (≈ 40.7 µM)
CC(C)(C)[Si](C)(C)O[C@H]1CC[C@@]2(C)C(=CC[C@H]3[C@@H]4CC[C@H]([C@@](C)(O)c5nccs5)[C@@]4(C)CC[C@@H]32)C1	16 (≈ 31 µM)	16 (≈ 31 µM)	> 64	8 (≈ 15.5 µM)	> 64	> 64	> 64
CC(=O)O[C@H]1CC[C@@]2(C)[C@@H](CC[C@@H]3[C@@H]2CC[C@@]2(C)[C@H]3CC[C@@H]2[C@@](C)(O)c2ccccn2)C1	16 (≈ 36.4 µM)	16 (≈ 36.4 µM)	> 64	8 (≈ 18.2 µM)	64 (≈ 146 µM)	16 (≈ 36.4 µM)	64 (≈ 146 µM)
C[C@]12CC[C@H](O)C[C@@H]1CC[C@@H]1[C@@H]2CC[C@@]2(C)[C@H]1CC[C@@H]2[C@@](C)(O)c1nccs1	32 (≈ 79.3 µM)	64 (≈ 159 µM)	> 64	16 (≈ 39.6 µM)	32 (≈ 79.3 µM)	> 64	> 64
CC(C)(C)[Si](C)(C)O[C@H]1CC[C@@]2(C)[C@@H](CC[C@@H]3[C@@H]2CC[C@@]2(C)[C@H]3CC[C@@H]2[C@@](C)(O)c2ccccn2)C1	16 (≈ 31.3 µM)	32 (≈ 62.5 µM)	32 (≈ 62.5 µM)	8 (≈ 15.6 µM)	16 (≈ 31.3 µM)	64 (≈ 125 µM)	> 64
C[C@]12CC[C@H](O)C[C@@H]1CC[C@@H]1[C@@H]2CC[C@@]2(C)[C@H]1CC[C@@H]2[C@@](C)(O)c1ccccn1	8 (≈ 20.1 µM)	32 (≈ 80.5 µM)	> 64	8 (≈ 20.1 µM)	64 (≈ 161 µM)	64 (≈ 161 µM)	32 (≈ 80.5 µM)
C[C@@H]1[C@H](O)[C@@H](C)/C=C/C=C/C=C/C=C/C=C/C=C/C=C/[C@H](O[C@@H]2O[C@H](C)[C@@H](O)[C@H](N)[C@@H]2O)C[C@@H]2O[C@](O)(C[C@@H](O)C[C@@H](O)[C@H](O)CC[C@@H](O)C[C@@H](O)CC(=O)O[C@H]1C)C[C@H](O)[C@H]2C(=O)O [AMPHOTERICIN B]	–	2 (≈ 2.16 µM)	16 (≈ 17.3 µM)	–	16 (≈ 17.3 µM)	16 (≈ 17.3 µM)	16 (≈ 17.3 µM)
C[C@]12CC[C@H]3[C@@H](CC=C4C[C@@H](O)CC[C@@]43C)[C@@H]1CC[C@@H]2[C@@](C)(O)c1nccs1	8 (≈ 19.9 µM)	16 (≈ 39.8 µM)	64 (≈ 159 µM)	8 (≈ 19.9 µM)	32 (≈ 79.7 µM)	32 (≈ 79.7 µM)	32 (≈ 79.7 µM)
OC(Cn1cncn1)(Cn1cncn1)c1ccc(F)cc1F [FLUCONAZOLE]	–	32 (≈ 104 µM)	8 (≈ 26.1 µM)	–	32 (≈ 104 µM)	32 (≈ 104 µM)	64 (≈ 209 µM)
CC(C)(C)[Si](C)(C)O[C@H]1CC[C@@]2(C)C(=CC[C@H]3[C@@H]4CC[C@H]([C@@](C)(O)c5ccccn5)[C@@]4(C)CC[C@@H]32)C1	8 (≈ 15.7 µM)	16 (≈ 31.4 µM)	8 (≈ 15.7 µM)	16 (≈ 31.4 µM)	32 (≈ 62.8 µM)	16 (≈ 31.4 µM)	8 (≈ 15.7 µM)
